Assay results taken from PubChem BioAssay (NCI).
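Each compound was tested at five concentrations against cells in 96-well plates for 48 hours. Abbreviation: GI50, concentration required for 50% inhibition of growth. TGI denotes the concentration required for complete inhibition of growth.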

Legend:
Assay in all cases: NCI anticancer screen, dose series, 48 h
[1] = system: MDA-MB-435
[2] = system: SW-620 colon
[3] = system: SF-295 CNS
[4] = system: SF-539 CNS
[5] = system: SK-MEL-5 melanoma
[6] = system: NCI-H522 lung
[7] = system: CAKI-1 renal
[8] = system: SK-MEL-28 melanoma
[9] = system: UACC-257 melanoma
[10] = system: M14 melanoma
[11] = system: MCF7 breast
[12] = system: U251 CNS
[13] = system: K-562 leukemia
[14] = system: OVCAR-8 ovarian
[15] = system: SR leukemia
[16] = system: NCI-H460 lung
[17] = system: IGROV1 ovarian
[18] = system: ACHN renal
[19] = system: HCC-2998 colon
[20] = system: HOP-62 NSCLC
[21] = system: CCRF-CEM leukemia
[22] = system: SN12C renal
[23] = system: SK-MEL-2 melanoma
[24] = system: KM12 colon
[25] = system: OVCAR-5 ovarian
[26] = system: HCT-116 colon
[27] = system: HS 578T breast
[28] = system: HCT-15 colon
[29] = system: DU-145 prostate
[30] = system: RPMI-8226 leukemia
[31] = system: BT-549 breast
[32] = system: NCI-H23 lung
[33] = system: UACC-62 melanoma
[34] = system: SF-268 CNS
[35] = system: T-47D breast
[36] = system: EKVX NSCLC
[37] = system: PC-3 prostate
[38] = system: UO-31 renal
[39] = system: RXF 393 renal
[40] = system: SK-OV-3 ovarian
[41] = system: TK-10 renal
[42] = system: SNB-75 CNS
[43] = system: HL-60(TB) leukemia
[44] = system: OVCAR-4 ovarian
[45] = system: COLO 205 colon
[46] = system: A498 renal
[47] = system: OVCAR-3 ovarian
[48] = system: A549 NSCLC
[49] = system: MOLT-4 leukemia
[50] = system: LOX IMVI melanoma
[51] = system: HT29 colon
[52] = system: NCI/ADR-RES ovarian
[53] = system: MALME-3M melanoma
[54] = system: 786-0 renal
[55] = system: MDA-MB-231 breast
[56] = system: SNB-19 CNS

With `N#Cc1cc(-c2ccccc2)[nH]c1-c1nccc2ccccc12` the GI50 [1] was 10.5 µM, the TGI [1] was 78.1 µM and the GI50 [2] was 61.5 µM. For the same molecule, the TGI [2] was over 100 µM, the GI50 [3] was 7.07 µM and the TGI [3] was over 100 µM. The GI50 [4] was 32.7 µM, the TGI [4] was over 100 µM and the GI50 [5] was 3.58 µM. For the same molecule, the TGI [5] was 15.2 µM, the GI50 [6] was 12.4 µM and the TGI [6] was 98 µM. It also gave a GI50 [7] of 12.5 µM, a TGI [7] of over 100 µM and a GI50 [8] of 26.5 µM. For the same molecule, the TGI [8] was over 100 µM, the GI50 [9] was 7.81 µM and the TGI [9] was 60.1 µM. It also gave a GI50 [10] of 14.9 µM, a TGI [10] of 84.7 µM and a GI50 [11] of 5.76 µM. It also gave a TGI [11] of over 100 µM, a GI50 [12] of 25.1 µM and a TGI [12] of over 100 µM. It also gave a GI50 [13] of 6.04 µM, a TGI [13] of over 100 µM and a GI50 [14] of 22.7 µM. The TGI [14] was over 100 µM, the GI50 [15] was 5.72 µM and the TGI [15] was over 100 µM. It also gave a GI50 [16] of 18.1 µM, a TGI [16] of over 100 µM and a GI50 [17] of 23.3 µM. The TGI [17] was over 100 µM, the GI50 [18] was 18.5 µM and the TGI [18] was over 100 µM. For the same molecule, the GI50 [19] was 18.9 µM, the TGI [19] was over 100 µM and the GI50 [20] was 29 µM. It also gave a TGI [20] of over 100 µM, a GI50 [21] of 14 µM and a TGI [21] of over 100 µM. The GI50 [22] was 23.9 µM, the TGI [22] was over 100 µM and the GI50 [23] was 11.9 µM. It also gave a TGI [23] of 81 µM, a GI50 [24] of 20.7 µM and a TGI [24] of over 100 µM. For the same molecule, the GI50 [25] was 31.7 µM, the TGI [25] was over 100 µM and the GI50 [26] was 9.13 µM. It also gave a TGI [26] of over 100 µM, a GI50 [27] of 37.6 µM and a TGI [27] of over 100 µM. It also gave a GI50 [28] of 20.6 µM, a TGI [28] of over 100 µM and a GI50 [29] of 32.3 µM. It also gave a TGI [29] of over 100 µM, a GI50 [30] of 4.35 µM and a TGI [30] of 53.2 µM. The GI50 [31] was 10.1 µM, the TGI [31] was over 100 µM and the GI50 [32] was 6.31 µM. For the same molecule, the TGI [32] was over 100 µM, the GI50 [33] was 7.36 µM and the TGI [33] was over 100 µM. It also gave a GI50 [34] of 22.6 µM, a TGI [34] of over 100 µM and a GI50 [35] of 3.06 µM. It also gave a TGI [35] of 45.2 µM, a GI50 [36] of 5.86 µM and a TGI [36] of over 100 µM. It also gave a GI50 [37] of 11.8 µM, a TGI [37] of over 100 µM and a GI50 [38] of 6.81 µM. For the same molecule, the TGI [38] was over 100 µM, the GI50 [39] was 13.6 µM and the TGI [39] was 89.1 µM. It also gave a GI50 [40] of 17.8 µM, a TGI [40] of over 100 µM and a GI50 [41] of 25.3 µM. It also gave a TGI [41] of over 100 µM, a GI50 [42] of 13.7 µM and a TGI [42] of over 100 µM. The GI50 [43] was 8.52 µM, the TGI [43] was 82.6 µM and the GI50 [44] was 3.43 µM. It also gave a TGI [44] of over 100 µM, a GI50 [45] of 11.7 µM and a TGI [45] of 33.2 µM. For the same molecule, the GI50 [46] was 26.3 µM, the TGI [46] was over 100 µM and the GI50 [47] was 21.9 µM. For the same molecule, the TGI [47] was over 100 µM, the GI50 [48] was 13.9 µM and the TGI [48] was over 100 µM. It also gave a GI50 [49] of 7.15 µM, a TGI [49] of 52.2 µM and a GI50 [50] of 15.6 µM. The TGI [50] was over 100 µM, the GI50 [51] was 30.5 µM and the TGI [51] was over 100 µM. It also gave a GI50 [52] of 6.44 µM, a TGI [52] of over 100 µM and a GI50 [53] of 13 µM. For the same molecule, the TGI [53] was 84.5 µM, the GI50 [54] was 26.9 µM and the TGI [54] was over 100 µM. It also gave a GI50 [55] of 19.4 µM, a TGI [55] of over 100 µM and a GI50 [56] of 31.3 µM. The TGI [56] was over 100 µM.
